From patent US7045495B2 (Sloan-Kettering Institute for Cancer Research, priority 1996, dated 2006)
Read-outs that look alike come from different tables or passages of the source.

How the values were obtained:
MKN-74 [1] = test: cell viability, trypan blue dye exclusion; format: cell-based, human; settings: 24 hours, single drug or concomitant; bryostatin 1 μM, Mitomycin-C 1 μg/ml, Taxol 50 μM, Cisplatin 50 μM
Excerpt: Recently our laboratory has studied the effects of combining bryostatin with chemotherapy both in vitro and in vivo against solid tumors. For our in vitro studies, we have been using the human gastric cancer cell line MKN-74. Cytotoxicity has been examined both by cell viability assays using trypan blue dye exclusion assays and by the induction of apoptosis using quantitative fluorescent microscopy.

SK-GT-2 = test: clonogenic assay, resistance relative to MKN-74; format: cell-based, human; settings: 10 μg/ml CDDP, 5 μg/ml MMC, 50 FM 5-FU
Excerpt: (§1) The basis of drug resistance in these disease has not been well defined. […] For gastric cancer applicants have been successful in establishing five long-term cell lines, SK-GT-1, SK-GT-2, SK-GT-4, SK-GT-5, and SK-GT-6 for Sloan Kettering Gastric Tumor (12,13) none of which express P-glycoprotein (14). Yet, all these tumors are resistant to chemotherapy and to the induction of apoptosis. Applicants have reported that the relative sensitivity of these gastric cancer cells to chemotherapy is influenced by their p53 status (14).

MKN-74 [2] = test: clonogenic assay, resistance relative to MKN-74; format: cell-based, human; settings: MKN-74 (reference); 10 μg/ml CDDP, 5 μg/ml MMC, 50 FM 5-FU
Excerpt: as §1

SK-GT-1 = test: clonogenic assay, resistance relative to MKN-74; format: cell-based, human; settings: clonogenic survival ratio, 10 μg/ml CDDP, 5 μg/ml MMC, 50 FM 5-FU
Excerpt: as §1

SK-GT-5 = test: clonogenic assay, resistance relative to MKN-74; format: cell-based, human; settings: 10 μg/ml CDDP, 5 μg/ml MMC, 50 FM 5-FU
Excerpt: as §1

NU-GC-4 = test: clonogenic assay, resistance relative to MKN-74; format: cell-based, human; settings: 10 μg/ml CDDP, 5 μg/ml MMC
Excerpt: as §1

SK-GT-2 cells = test: apoptosis by QFM, Hoechst-33258 staining; format: cell-based, human; settings: 24 hours
Method: (i) Safingol enhances MMC-induced apoptosis: SK-GT-5 cells, which have a mutated p53 gene (9), were treated with safingol in the presence or absence of MMC for 24 hours. For determination of apoptosis SK-GT-5 cells were treated according to one of several conditions: (i) no drug (control) for 24 hours, (ii) Safingol alone (50 μM) for 24 hours. (This concentration represents the highest non-toxic dose of safingol for the SK-GT-5 cells, as determined by cell proliferation studies, and slightly exceeds the safingol concentration (30 μM) which inhibits PKC enzyme activity by 50% in vitro.), (iii) Mitomycin-C alone (2.5 μg/ml) for 24 hours, (iv) Mitomycin-C alone (5 μg/ml) for 24 hours, (v) the combination of safingol (50 μM) and Mitomycin-C (2.5 μg/ml) for 24 hours, (vi) the combination of safingol (50 μM) and Mitomycin-C (5 μg/ml) for 24 hours. Apoptosis was measured by quantitative fluorescent microscopy (QFM) of nuclear changes induced by apoptosis, as determined by bisbenzimide trihydrochloride (Hoescht-33258) staining of condensed nuclear chromatin (3,5). For the QFM duplicate samples of 500 cells each were counted and scored for the incidence of apoptotic chromatin condensation using an Olympus BH-2 fluorescence microscope.
(ii) UCN-01 enhances MMC-induced apoptosis: SK-GT-2 cells, which have a mutation in p53, were treated with increasing concentrations of UCN-01 in the presence or absence of a fixed dose of MMC for 24 hours.
Both UCN-01 and Flavo inhibit PKC. These drugs are cytotoxic to tumor cells and have been reported to induce apoptosis. […] In order to test this hypothesis we elected to treat gastric cancer cells, MKN-74 and SK-GT-2, as well as breast cancer cells, MDA-MB-468, with UCN-01 (7.5 to 10 μM) or Flavo (300 nM) in the presence or absence of MMC (5 μg/ml) or Taxol (50 μM) for 24 hours. Induction of apoptosis was estimated by counting the frequency of condensed nuclear chromatin with Hoechst-33258 stain in duplicate samples of 400 cells.

[3] = phase I trial safingol with doxorubicin: plasma pharmacokinetics; format: in vivo, patients; settings: human, intravenous
Method: (iii) Safingol pharmacokinetics appear linear with increasing dose: The pharmacokinetics of patients treated with safingol and DOX at 45 mg/m^2 is shown below: […]

16C mammary carcinoma = settings: safingol 5 to 20 mg/kg; cited from earlier work
case in kinase = settings: read-out: concentration for 50% inhibition of case in kinase; safingol; cited from earlier work
[4] = rat, in vivo; cited from earlier work
[5] = target: cyclic-adenosine monophosphate-dependent protein kinase A; settings: read-out: concentration for 50% inhibition of protein kinase A; safingol; cited from earlier work
creatinine phosphokinase = settings: read-out: concentration for 50% inhibition of creatinine phosphokinase; safingol; cited from earlier work
[6] = set-up: species or system patients; settings: in vivo
Method: Individual patients could receive up to six cycles of treatment with the same dose of safingol and doxorubicin (DOX) every 21 days, until signs of tumor progression or unacceptable toxicity occurs, or until the patient's cumulative life-time dose of doxorubicin exceeds 400 mg/m^2 with an additional cycle of treatment. Prior DOX therapy was allowed up to a dose of 280 mg/m^2 as long as the left ventricular ejection fraction was>50%. The starting dose of safingol was 15 mg/m^2.
In fact the white blood count nadirs have increased with increasing safingol dose. Dose escalation above 120 mg/m^2 is planned.
This was associated with no changes in reticulocyte count, no evidence of hemolysis on the peripheral smear, no “pink” discoloration to the plasma, and no evidence or urine hemosiderin. This was believed to be related to relatively poor venous access which only became apparent on the first day of therapy. The patient was retreated according to applicants, protocol criteria for grade I hemolysis which included infusion of safingol through a central vein and at one half the concentration (twice the total volume but the same total dose). Under these conditions the patient has experienced no further evidence of hemolysis.

With CO[C@@]12[C@H](COC(N)=O)C3=C(C(=O)C(C)=C(N)C3=O)N1C[C@@H]1N[C@@H]12 [MMC, Mitomycin-C] the “% of Cells Alive” value (MKN-74 [1]) was 76%, the “Fold-Increase in Resistance Relative to MKN-74 (p53wt)” value (SK-GT-2) was 106X and the “Fold-Increase in Resistance Relative to MKN-74 (p53wt)” value (MKN-74 [2]) was 1X. For the same molecule, the “Fold-Increase in Resistance Relative to MKN-74 (p53wt)” value (SK-GT-1) was 166X, the “Fold-Increase in Resistance Relative to MKN-74 (p53wt)” value (SK-GT-5) was 55X and the “Fold-Increase in Resistance Relative to MKN-74 (p53wt)” value (NU-GC-4) was 10X. For the same molecule, the “percentage of cells undergoing apoptosis (QFM)” value (SK-GT-2 cells; MMC alone 5.0 μg/ml) was 7%±3% and the “induction of apoptosis (condensed chromatin, 400 cells)” value (SK-GT-2 cells; UCN-01 7.5 to 10 μM, MMC 5 μg/ml) was 11% ± 2.
Work on CCCCCCCCCCCCCCC[C@H](O)[C@@H](N)CO [safingol, L-threo-dihydrosphingosine] yielded a Cmax ([3]; 15 mg/m2, dose level 15 mg/m^2) of 199 ng/mL, an AUC ([3]; 15 mg/m2, dose level 15 mg/m^2, read-out: AUC without DOX (first column)) of 168 ng·h/mL and an AUC ([3]; 15 mg/m2, dose level 15 mg/m^2, read-out: AUC without DOX (second column)) of 161 ng·h/mL. It also gave a Cmax ([3]; 30 mg/m2, dose level 30 mg/m^2) of 336 ng/mL, an AUC ([3]; 30 mg/m2, dose level 30 mg/m^2, read-out: AUC without DOX (first column)) of 501 ng·h/mL and an AUC ([3]; 30 mg/m2, dose level 30 mg/m^2, read-out: AUC without DOX (second column)) of 428 ng·h/mL. The Cmax ([3]; 60 mg/m2, dose level 60 mg/m^2) was 422 ng/mL, the AUC ([3]; 60 mg/m2, dose level 60 mg/m^2, read-out: AUC without DOX (first column)) was 531 ng·h/mL and the AUC ([3]; 60 mg/m2, dose level 60 mg/m^2, read-out: AUC without DOX (second column)) was 501 ng·h/mL. It also gave a Cmax ([3]; 120 mg/m2, dose level 120 mg/m^2) of 988 ng/mL, an AUC ([3]; 120 mg/m2, dose level 120 mg/m^2, read-out: AUC without DOX (first column)) of 1230 ng·h/mL and an AUC ([3]; 120 mg/m2, dose level 120 mg/m^2, read-out: AUC without DOX (second column)) of 1230 ng·h/mL. The “effect on tumor cell growth, single agent” value (16C mammary carcinoma) was “no effect on inhibiting tumor cell growth”, the IC50 (case in kinase) was greater than 218 µM and the “potentiation of toxicity of chemotherapeutic agents” value [4] was “did not potentiate the myelotoxicity of these agents”. The IC50 [5] was greater than 218 µM, the IC50 (creatinine phosphokinase) was greater than 218 µM and the “dose limiting hematologic toxicity” value [6] was “no-dose limiting hematologic toxicity”. The hemolysis [6] was “only one patient has experienced a grade I hemolysis”.
